Measured values published in patent publication US20110046040A1, “Microorganism-inactivating agent” (CHISSO CORPORATION, priority 2009, published 2011).

Assays:
Assay in all cases: inactivation of microorganisms in water, number of cells in supernatant
Type in all cases: cell-based
Bacillus subtilis = conditions: 10 ppm; pH 8; initial 6.0 × 10^4
Procedure: (§1) Each test microbe was inoculated to nutrient broth and cultured with shaking at the optimum temperature of the test microbe until the late logarithmic phase. From the microbe culture, the microbe was collected, and the collected microbe was washed with 1.5 mL of physiological saline 2 to 3 times (centrifugation at 13000 rpm for 1 minute) and suspended in 1.5 mL of physiological saline. From the suspension, a 1 mL aliquot was recovered, and this was added to 9 mL of sterile water, followed by sufficient stirring of the resulting suspension (this was used as 10^−1 dilution). From the 10^−1 dilution, 10^−2 to 10^−8 dilutions were sequentially prepared. Each dilution was smeared on a film medium (Sanita-kun; for E. coli and coliform bacteria, for Staphylococcus aureus, for Salmonella, for aerobic bacteria or for fungi: Chisso Corporation) in an amount of 1 mL, followed by culturing at the optimum temperature of the test microbe for 24 to 72 hours and measurement of the number of cells on the film medium.
(§2) To a sterilized beaker, 500 mL of sterilized water was placed, and 0.20 mL of microbe culture of 10^6 to 10^10 cells/mL was inoculated thereto, to attain an initial cell number of 10^3 to 10^7 cells/mL. Unless otherwise specified, the pH was 6 to 8. After stirring the suspension gently for 5 minutes, PGα21Ca (Nippon Poly-Glu Co., Ltd.) and/or a microbiostatic agent or microbicide was/were added thereto such that a predetermined final concentration(s) was/were attained. After gentle stirring at room temperature for 10 to 15 minutes, the suspension was left to stand for a predetermined length of time. The supernatant was collected and diluted appropriately in an antimicrobial agent-inactivating medium (BHI medium or the like), and 1 mL each of the resulting diluent was smeared on a film medium. Culturing was carried out at the optimum temperature of each test microbe for 24 to 72 hours and the number of cells (cells/mL) on the film medium was measured.

Staphylococcus aureus = conditions: 10 ppm; pH 8; initial 4.3 × 10^4
Procedure: as §1, §2

Bacillus cereus = conditions: 10 ppm; pH 8; initial 9.5 × 10^4
Procedure: as §1, §2

Salmonella choleraesuis = conditions: 10 ppm; pH 8; initial 4.7 × 10^4
Procedure: as §1, §2

Escherichia coli = conditions: 10 ppm; pH 8; initial 5.8 × 10^4
Procedure: as §1, §2

Listeria monocytogenes = conditions: 10 ppm; pH 8; initial 2.0 × 10^4
Procedure: as §1, §2

Pseudomonas aeruginosa = conditions: 10 ppm; pH 8; initial 2.0 × 10^5
Procedure: as §1, §2

Klebsiella pneumoniae = conditions: 10 ppm; pH 8; initial 1.3 × 10^5
Procedure: as §1, §2

Substance: protamine sulfate
- number of cells 2 hours later (Bacillus subtilis): 10 cells/mL
- number of cells 2 hours later (Staphylococcus aureus): <10 cells/mL
- number of cells 2 hours later (Bacillus cereus): 300 cells/mL
- number of cells 2 hours later (Salmonella choleraesuis): <10 cells/mL
- number of cells 2 hours later (Escherichia coli): <10 cells/mL
- number of cells 2 hours later (Listeria monocytogenes): <10 cells/mL
- number of cells 2 hours later (Pseudomonas aeruginosa): <10 cells/mL
- number of cells 2 hours later (Klebsiella pneumoniae): 10 cells/mL
